From patent publication US8314215B2, “Mild chemically cleavable linker system” (The Board of Trustees of the Leland Stanford Junior …, priority 2006, dated 2012)

Tests used:
Assay in all cases: LC/MS/MS identification of proteins from mouse liver extracts labeled with MTS-I-49
Assay type in all cases: biochemical
[1] = tested on: fructose-bisphosphate aldolase
Text: (§1) (1991) Irreversible inhibition of serine proteases by peptide derivatives of (alpha-aminoalkyl)phosphonate diphenyl esters. Biochemistry 30, 485-493). However, it has not been used for any proteomic applications. We used MTS-I-49 to label mouse liver extracts and analyze the labeled sample by both SDS-PAGE (FIG. 5B) and by direct chemical cleavage or on bead digestion.
(§2) After enrichment on immobilized avidin, each of the three labeled proteomes (FIG. 5b) was divided into two aliquots. One was prepared for LC-MS/MS analysis by “on bead” digestion, while the other was chemically eluted and digested “in solution.” Proteins identified in each tissue lysate are listed with their accession number and theoretical molecular weight (MW). To compare both approaches, the number of identified peptides and percentage of amino acid sequence coverage is listed for each protein.
(§3) Proteins in the above Table were identified by LC/MS/MS analysis of on bead digested or chemically eluted proteins from mouse liver extracts labeled with MTS-I-49. […] BLAST database searching identified it as liver carboxylesterase 4. A number of additional endogenously biotinylated proteins were identified in the on-bead digested sample.

[2] = tested on: 3-hydrozy-3-methylglutaryl-coenzyme A-synthase
Text: as §1, §2, §3

Liver carboxylesterase 4 = target: T1, Liver carboxylesterase 4 (Mus musculus, UniProt Q91WU0)
T1 construct: from tissue; host or cells: mouse liver extract
T1 sequence (Q91WU0 18-561): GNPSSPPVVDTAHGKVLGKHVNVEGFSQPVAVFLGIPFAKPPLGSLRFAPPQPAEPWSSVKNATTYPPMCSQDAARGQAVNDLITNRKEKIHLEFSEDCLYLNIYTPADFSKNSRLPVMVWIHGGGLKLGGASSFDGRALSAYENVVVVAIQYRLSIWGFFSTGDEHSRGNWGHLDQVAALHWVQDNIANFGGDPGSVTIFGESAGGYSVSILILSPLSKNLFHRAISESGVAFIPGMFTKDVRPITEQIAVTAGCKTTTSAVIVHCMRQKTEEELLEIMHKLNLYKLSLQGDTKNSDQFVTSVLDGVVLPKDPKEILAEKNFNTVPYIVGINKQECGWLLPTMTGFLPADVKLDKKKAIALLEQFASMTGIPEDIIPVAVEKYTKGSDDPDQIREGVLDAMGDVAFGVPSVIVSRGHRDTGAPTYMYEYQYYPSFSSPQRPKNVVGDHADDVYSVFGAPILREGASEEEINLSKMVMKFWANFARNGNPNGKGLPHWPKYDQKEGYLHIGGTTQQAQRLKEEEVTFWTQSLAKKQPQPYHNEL
Text: as §1, §2, §3

[3] = target: T2, propionyl-Coenzyme A carboxylase (Mus musculus, UniProt Q91ZA3)
T2 construct: from tissue; host or cells: mouse liver extract
T2 sequence (Q91ZA3 49-724): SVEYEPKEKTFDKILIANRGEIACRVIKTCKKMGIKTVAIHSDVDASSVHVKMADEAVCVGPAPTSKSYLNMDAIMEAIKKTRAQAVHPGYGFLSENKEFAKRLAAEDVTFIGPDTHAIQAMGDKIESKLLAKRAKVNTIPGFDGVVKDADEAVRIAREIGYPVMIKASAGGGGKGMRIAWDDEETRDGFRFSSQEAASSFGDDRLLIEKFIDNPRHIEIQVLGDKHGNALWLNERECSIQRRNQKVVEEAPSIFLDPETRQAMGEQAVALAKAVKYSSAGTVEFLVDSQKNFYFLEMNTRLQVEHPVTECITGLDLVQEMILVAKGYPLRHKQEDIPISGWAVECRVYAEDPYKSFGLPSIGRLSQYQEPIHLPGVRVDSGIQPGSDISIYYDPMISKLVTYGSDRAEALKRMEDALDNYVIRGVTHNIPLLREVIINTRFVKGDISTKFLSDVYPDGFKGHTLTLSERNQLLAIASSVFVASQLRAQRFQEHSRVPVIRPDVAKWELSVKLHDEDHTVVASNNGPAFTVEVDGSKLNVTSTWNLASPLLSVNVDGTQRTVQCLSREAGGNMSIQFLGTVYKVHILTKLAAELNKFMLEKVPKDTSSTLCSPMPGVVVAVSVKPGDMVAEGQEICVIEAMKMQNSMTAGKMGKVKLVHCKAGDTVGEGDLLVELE
T2 sequence (Q99MN9 29-541 partner): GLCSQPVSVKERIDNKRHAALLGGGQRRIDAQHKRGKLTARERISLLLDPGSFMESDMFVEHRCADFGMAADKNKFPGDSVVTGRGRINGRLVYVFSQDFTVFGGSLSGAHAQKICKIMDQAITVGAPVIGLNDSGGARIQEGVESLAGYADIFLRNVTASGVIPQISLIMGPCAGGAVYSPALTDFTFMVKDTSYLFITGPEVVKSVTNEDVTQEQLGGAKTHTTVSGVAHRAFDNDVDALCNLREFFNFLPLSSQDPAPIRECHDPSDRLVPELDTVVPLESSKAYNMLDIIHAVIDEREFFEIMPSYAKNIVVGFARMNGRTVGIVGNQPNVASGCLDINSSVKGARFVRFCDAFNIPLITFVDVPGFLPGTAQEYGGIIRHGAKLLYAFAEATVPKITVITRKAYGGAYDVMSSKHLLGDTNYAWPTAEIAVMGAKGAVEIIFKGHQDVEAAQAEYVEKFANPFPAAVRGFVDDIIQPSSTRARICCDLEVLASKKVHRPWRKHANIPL
Text: as §1, §2, §3

hemoglobin alpha 1 = target: T3, hemoglobin alpha 1 (Mus musculus, UniProt P01942)
T3 construct: from tissue; host or cells: mouse liver extract
T3 sequence (P01942 2-142 limits assumed): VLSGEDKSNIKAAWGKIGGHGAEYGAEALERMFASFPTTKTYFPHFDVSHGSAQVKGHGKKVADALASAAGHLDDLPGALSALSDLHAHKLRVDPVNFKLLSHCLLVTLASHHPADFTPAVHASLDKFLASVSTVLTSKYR
T3 sequence (P02088 2-147 partner limits assumed): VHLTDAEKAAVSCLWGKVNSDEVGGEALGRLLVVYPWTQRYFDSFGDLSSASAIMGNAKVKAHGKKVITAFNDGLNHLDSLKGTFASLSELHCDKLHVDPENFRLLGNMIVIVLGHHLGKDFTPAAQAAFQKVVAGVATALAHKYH
Text: as §1, §2, §3

[4] = tested on: glutathione-S-transferase
Text: as §1, §2, §3

[5] = chemically eluted, digested in solution
[6] = Liver carboxylesterase 4, chemically eluted, digested in solution
[7] = Liver carboxylesterase 4, on bead digestion

Question: With `C[C@H](NC(=O)c1ccc(N=Nc2cc(CCNC(=O)CCCC[C@@H]3SC[C@@H]4NC(=O)N[C@@H]43)ccc2O)cc1)C(=O)N[C@@H](C)C(=O)NC(Cc1ccccc1)P(=O)(Oc1ccccc1)Oc1ccccc1` (stereo partly shown) [MTS-I-49] as the compound, how does the “Chemical Cleavage, number of identified peptides” value (“Chemical Cleavage, number” below) [1, 5] read?
Answer: 0

Question: And the “On Bead Digestion, amino acid sequence coverage” value ([1]; on bead digestion)?
Answer: 6%

Question: And the “On Bead Digestion, number of identified peptides” value (shortened to “On Bead Digestion, number”) ([1]; on bead digestion)?
Answer: 2

Question: What about the “Chemical Cleavage, number” value [2, 5] of the same compound?
Answer: 0

Question: What about the “On Bead Digestion, amino acid sequence coverage” value ([2]; on bead digestion) of the same compound?
Answer: 6%

Question: And the “On Bead Digestion, number” value ([2]; on bead digestion)?
Answer: 2

Question: What about the “Chemical Cleavage, amino acid sequence coverage” value (Liver carboxylesterase 4; [6]) of the same compound?
Answer: 38%

Question: And the “Chemical Cleavage, number” value (Liver carboxylesterase 4; [6])?
Answer: 14

Question: What about the “On Bead Digestion, amino acid sequence coverage” value (Liver carboxylesterase 4; [7]) of the same compound?
Answer: 51%

Question: What about the “On Bead Digestion, number” value (Liver carboxylesterase 4; [7]) of the same compound?
Answer: 20

Question: What about the “target identification after chemical cleavage” value (Liver carboxylesterase 4; mouse liver extracts, hypothetical protein identified by BLAST as liver carboxylesterase 4) of the same compound?
Answer: primary probe target

Question: What about the “Chemical Cleavage, amino acid sequence coverage” value [3, 5] of the same compound?
Answer: 8%

Question: What about the “Chemical Cleavage, number” value [3, 5] of the same compound?
Answer: 3

Question: What about the “On Bead Digestion, amino acid sequence coverage” value ([3]; on bead digestion) of the same compound?
Answer: 45%

Question: And the “On Bead Digestion, number” value ([3]; on bead digestion)?
Answer: 22

Question: What about the “Chemical Cleavage, number” value (hemoglobin alpha 1; [5]) of the same compound?
Answer: 0

Question: And the “On Bead Digestion, amino acid sequence coverage” value (hemoglobin alpha 1; on bead digestion)?
Answer: 25%

Question: What about the “On Bead Digestion, number” value (hemoglobin alpha 1; on bead digestion) of the same compound?
Answer: 3

Question: And the “Chemical Cleavage, amino acid sequence coverage” value [4, 5]?
Answer: 12%

Question: What about the “Chemical Cleavage, number” value [4, 5] of the same compound?
Answer: 2

Question: What about the “On Bead Digestion, amino acid sequence coverage” value ([4]; on bead digestion) of the same compound?
Answer: 44%

Question: What about the “On Bead Digestion, number” value ([4]; on bead digestion) of the same compound?
Answer: 8
